ChEMBL document CHEMBL1201862, “PubChem BioAssay data set” (2004)
Activity calls are given as the source filed them.

Assays:
[1] = target: DNA dC->dU-editing enzyme APOBEC-3G (Homo sapiens, UniProt Q9HC16); test: Dose Response confirmation of small molecule APOBEC3G DNA Deaminase Inhibitors via a fluorescence-based single-stranded DNA deaminase assay. [Related pubchem assays (depositor defined):AID493012, AID493028]; type: functional
[2] = blockers of HIV-1 ZM109 envelope-driven cell-cell fusion – HeLa effector, CEM target cells, luciferase, cherry-pick, dose response (AID 652058); type: functional, cell-based;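 note: luciferase signal from HIV-1 Env mediated cell-cell fusion of effector and target cells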
[3] = HIV-1 AD8 envelope cell-cell fusion blockers – cherry-pick, dose response (AID 652062); type: functional, cell-based;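 note: luciferase signal from cell-cell fusion driven by HIV-1 clade B AD8 Env; potency is for inhibitors of fusion seen as a drop in luminescence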
[4] = loss of viability in HepG2 cells – cell-based, CellTiter-Glo, cherry-picked, cytotoxicity control for Shn3 inhibitor project, dose response (AID 624134); type: functional
[5] = non-specific 3'UTR reporter inhibition in Clone20-Shn3RL – cell-based, Renilla luciferase, cherry-picked, counter-screen for Shn3 inhibitor project, dose response (AID 624133); type: functional
[6] = blockers of HIV-1 envelope-mediated cell-cell fusion – cherry-pick, dose response (AID 652057); type: functional, cell-based
[7] = reduction of Shn3 3'UTR-driven luciferase in osteoblasts – cell-based, Clone20 osteoblasts, firefly luciferase, cherry-picked, dose response (AID 624132); type: functional;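 note: firefly luciferase luminescence from reporter carrying the Shn3 3'UTR in osteoblasts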
[8] = target: Glyceraldehyde-3-phosphate dehydrogenase (Homo sapiens, UniProt P04406)
[9] = target: T1, Alkaline phosphatase, tissue-nonspecific isozyme (Homo sapiens, UniProt P05186); test: potency against alkaline phosphatase TNAP – biochemical, luminescent, dose response, SAR follow-up (AID 1056)
T1 sequence (P05186 whole entry): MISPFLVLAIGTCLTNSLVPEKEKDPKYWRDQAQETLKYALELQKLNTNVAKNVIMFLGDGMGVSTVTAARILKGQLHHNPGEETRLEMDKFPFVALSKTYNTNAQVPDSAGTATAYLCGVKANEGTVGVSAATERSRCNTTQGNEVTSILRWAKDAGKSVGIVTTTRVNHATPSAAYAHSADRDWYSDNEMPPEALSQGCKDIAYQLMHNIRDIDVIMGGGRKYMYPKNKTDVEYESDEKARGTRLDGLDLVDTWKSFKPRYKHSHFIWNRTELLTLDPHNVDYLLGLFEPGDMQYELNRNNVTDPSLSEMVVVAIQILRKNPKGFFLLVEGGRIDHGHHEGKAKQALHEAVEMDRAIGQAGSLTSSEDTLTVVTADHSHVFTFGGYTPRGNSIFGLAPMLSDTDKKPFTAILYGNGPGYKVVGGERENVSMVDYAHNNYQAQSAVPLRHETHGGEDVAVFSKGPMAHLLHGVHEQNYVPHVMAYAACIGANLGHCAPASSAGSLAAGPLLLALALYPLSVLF

[10] = target: T2, Corticotropin-releasing factor receptor 2/Corticotropin-releasing factor-binding protein (Homo sapiens, UniProt P24387+Q13324); test: Dose Response confirmation of uHTS hits for small molecule antagonists of the CRF-binding protein and CRF-R2 receptor complex.; type: functional; conditions: read-out: IC50_Mean
T2 sequence (Q13324 whole entry): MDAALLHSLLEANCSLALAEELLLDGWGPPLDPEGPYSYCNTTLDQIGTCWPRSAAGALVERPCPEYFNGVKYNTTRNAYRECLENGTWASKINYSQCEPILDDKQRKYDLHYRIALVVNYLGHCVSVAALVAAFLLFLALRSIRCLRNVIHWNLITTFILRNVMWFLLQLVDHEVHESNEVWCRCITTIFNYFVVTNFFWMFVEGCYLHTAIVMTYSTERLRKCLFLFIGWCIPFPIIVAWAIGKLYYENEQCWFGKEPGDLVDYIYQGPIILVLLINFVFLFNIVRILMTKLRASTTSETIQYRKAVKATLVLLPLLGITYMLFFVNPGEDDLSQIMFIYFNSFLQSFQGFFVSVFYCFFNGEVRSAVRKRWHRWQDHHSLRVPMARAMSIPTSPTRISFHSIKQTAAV
T2 sequence (P24387 whole entry): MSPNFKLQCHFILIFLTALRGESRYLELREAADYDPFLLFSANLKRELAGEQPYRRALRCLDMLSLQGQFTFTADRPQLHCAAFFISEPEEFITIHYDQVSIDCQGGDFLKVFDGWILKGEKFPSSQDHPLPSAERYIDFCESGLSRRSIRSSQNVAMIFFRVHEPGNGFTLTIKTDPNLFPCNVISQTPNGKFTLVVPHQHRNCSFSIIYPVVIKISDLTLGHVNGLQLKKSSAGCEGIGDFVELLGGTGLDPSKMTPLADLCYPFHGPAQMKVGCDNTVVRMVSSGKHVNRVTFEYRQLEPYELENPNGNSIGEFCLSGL

[11] = target: T2, Corticotropin-releasing factor receptor 2/Corticotropin-releasing factor-binding protein; test: activators of CRF receptor 2 with binding protein – uHTS hits, confirmation (AID 602473); type: functional; conditions: read-out: EC50_Mean
[12] = blockers of CRF-binding protein–CRF-R2 complex – cell-based, uHTS hits, 384-well, dose response (AID 651639); type: functional, Homo sapiens; conditions: read-out: IC50_Mean
[13] = cells; type: functional
[14] = target: Estrogen receptor beta (Homo sapiens, UniProt Q92731);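 note: recombinant ER-beta bound to coactivator SRC1 peptide in presence of estradiol agonist; inhibitors block coactivator peptide binding and lower the FRET signal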
[15] = target: T3, Heat shock factor protein 1 (Mus musculus, UniProt P38532); test: enhancement of HSF1-driven luciferase signal – cell-based, NIH3T3, luminescence, dose retest, confirmation (AID 435004); type: functional;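 note: stress induced by proteasome inhibitor MG132 added 30 min after compound; luciferase reporter driven by HSF1 response element in NIH3T3 cells; actives raise luminescence as potentiators of the MG132 stress response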
T3 sequence (P38532 whole entry): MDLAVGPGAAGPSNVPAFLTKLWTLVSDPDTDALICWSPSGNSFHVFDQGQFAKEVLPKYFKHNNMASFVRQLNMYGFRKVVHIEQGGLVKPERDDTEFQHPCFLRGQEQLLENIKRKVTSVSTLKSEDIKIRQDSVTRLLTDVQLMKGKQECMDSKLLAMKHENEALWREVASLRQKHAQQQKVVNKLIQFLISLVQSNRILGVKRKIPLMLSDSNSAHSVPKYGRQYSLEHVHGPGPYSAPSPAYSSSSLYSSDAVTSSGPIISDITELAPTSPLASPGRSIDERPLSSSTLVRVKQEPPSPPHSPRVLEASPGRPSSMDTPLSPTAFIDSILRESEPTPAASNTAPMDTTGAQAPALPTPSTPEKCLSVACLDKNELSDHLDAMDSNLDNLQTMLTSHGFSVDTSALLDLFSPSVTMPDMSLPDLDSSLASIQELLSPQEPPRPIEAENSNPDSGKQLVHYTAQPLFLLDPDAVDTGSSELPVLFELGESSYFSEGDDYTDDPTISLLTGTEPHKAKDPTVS

[16] = target: Induced myeloid leukemia cell differentiation protein Mcl-1 (Homo sapiens, UniProt Q07820); type: functional
Sequence of Induced myeloid leukemia cell differentiation protein Mcl-1 (Q07820 whole entry): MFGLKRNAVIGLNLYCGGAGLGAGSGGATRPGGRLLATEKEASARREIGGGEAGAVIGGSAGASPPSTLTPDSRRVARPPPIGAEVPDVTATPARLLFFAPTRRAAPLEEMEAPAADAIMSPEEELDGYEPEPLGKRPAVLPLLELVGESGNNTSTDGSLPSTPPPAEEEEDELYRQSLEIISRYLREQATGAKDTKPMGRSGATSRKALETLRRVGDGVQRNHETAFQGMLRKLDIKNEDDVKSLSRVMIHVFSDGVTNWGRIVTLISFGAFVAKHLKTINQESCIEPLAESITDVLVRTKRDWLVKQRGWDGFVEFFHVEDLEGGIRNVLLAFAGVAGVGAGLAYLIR

Sequence of Estrogen receptor beta (Q92731 whole entry): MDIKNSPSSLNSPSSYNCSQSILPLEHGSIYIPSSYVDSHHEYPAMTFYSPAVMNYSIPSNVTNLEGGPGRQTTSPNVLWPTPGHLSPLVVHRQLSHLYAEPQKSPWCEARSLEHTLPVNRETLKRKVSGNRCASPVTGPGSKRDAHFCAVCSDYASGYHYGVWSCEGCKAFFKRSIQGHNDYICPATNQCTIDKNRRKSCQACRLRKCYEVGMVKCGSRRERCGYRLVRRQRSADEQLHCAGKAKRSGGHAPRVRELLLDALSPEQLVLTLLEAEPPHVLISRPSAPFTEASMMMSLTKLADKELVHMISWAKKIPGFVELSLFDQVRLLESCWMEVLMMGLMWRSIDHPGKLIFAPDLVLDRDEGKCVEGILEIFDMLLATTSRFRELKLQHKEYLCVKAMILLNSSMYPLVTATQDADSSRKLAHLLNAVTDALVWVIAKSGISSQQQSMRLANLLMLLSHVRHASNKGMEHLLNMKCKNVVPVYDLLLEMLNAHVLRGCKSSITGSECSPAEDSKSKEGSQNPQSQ
Sequence of Glyceraldehyde-3-phosphate dehydrogenase (P04406 whole entry): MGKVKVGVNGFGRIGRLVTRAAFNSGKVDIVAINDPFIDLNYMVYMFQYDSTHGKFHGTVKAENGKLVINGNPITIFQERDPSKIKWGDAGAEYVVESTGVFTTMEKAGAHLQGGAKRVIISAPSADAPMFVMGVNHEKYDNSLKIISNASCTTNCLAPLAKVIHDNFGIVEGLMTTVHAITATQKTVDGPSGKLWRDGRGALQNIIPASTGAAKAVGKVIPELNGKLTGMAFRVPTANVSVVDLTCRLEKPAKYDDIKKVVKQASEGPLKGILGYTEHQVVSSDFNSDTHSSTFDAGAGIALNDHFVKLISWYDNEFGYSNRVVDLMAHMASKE
Sequence of DNA dC->dU-editing enzyme APOBEC-3G (Q9HC16 whole entry, the tested form may be a part): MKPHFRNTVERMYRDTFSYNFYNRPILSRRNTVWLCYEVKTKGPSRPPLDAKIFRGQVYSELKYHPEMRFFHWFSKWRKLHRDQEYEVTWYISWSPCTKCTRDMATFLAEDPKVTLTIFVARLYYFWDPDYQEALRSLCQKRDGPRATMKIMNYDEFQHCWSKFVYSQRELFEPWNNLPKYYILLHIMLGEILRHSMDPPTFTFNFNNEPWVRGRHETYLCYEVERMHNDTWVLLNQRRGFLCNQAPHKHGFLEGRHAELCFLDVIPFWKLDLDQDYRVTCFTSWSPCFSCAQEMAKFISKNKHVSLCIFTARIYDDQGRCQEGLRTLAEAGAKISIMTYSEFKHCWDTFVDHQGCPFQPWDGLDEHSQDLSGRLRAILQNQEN

| Compound | IC50 [10] | EC50 [11] | IC50 [12] | further results |
| --- | --- | --- | --- | --- |
| O=[N+]([O-])c1ccc(N2CCN(C(=S)c3cccc([N+](=O)[O-])c3)CC2)cc1 |  |  |  | IC50 [1]: 47.7 µM (active) |
| CSc1ccc(CN(C)C(=O)c2cccc(S(=O)(=O)N3CCN(Cc4ccccc4)CC3)c2)cc1 |  |  |  | AC50 [2]: 10.3 µM (active); AC50 [3]: 8.39 µM (active); AC50 [4]: 64.6 µM (active); AC50 [5]: 14.3 µM (active); AC50 [6]: 10.3 µM (active); AC50 [7]: 2.89 µM (active) |
| COc1ccc(S(=O)(=O)Nc2ccc3ccccc3c2)cc1 |  |  |  | IC50 [8]: > 100 µM (not active); IC50 [9]: > 100 µM (inactive) |
| O=C(Oc1c(Br)cc([N+](=O)[O-])cc1Br)c1cccnc1 | 9.69 µM (active) | > 53 µM (inactive) | > 20 µM (inactive) |  |
| Cn1c(COc2ccccc2)nnc1SCC(=O)c1cccc([N+](=O)[O-])c1 | 23.4 µM (active) | > 53 µM (inactive) | 7.77 µM (active) |  |
| CCCCNC(=O)COC(=O)c1cc(F)c(F)cc1Cl |  |  |  | IC50 [13]: 8.58 µM (active) |
| Cc1ccccc1Cn1ccc(NC(=O)c2cc3ncc(Br)cn3n2)n1 | < 0.368 µM (active) | > 53 µM (inactive) | 2.65 µM (active) |  |
| O=C(CNC(=O)c1ccco1)OCc1ccc(Cl)cc1 |  |  |  | IC50 [14]: > 50 µM (not active) |
| CCn1cc(SCC(=O)NCc2ccc3c(c2)OCO3)c2ccccc21 |  |  |  | IC50 [14]: > 50 µM (not active) |
| NS(=O)(=O)c1ccc(CCNC2CC(=O)N(CCc3ccccc3)C2=O)cc1 (stereo not given) |  |  |  | IC50 [14]: > 50 µM (not active) |
| Cc1ccc2cccc(Oc3ncnc4scc(-c5ccccc5)c34)c2n1 | 7.86 µM (active) | > 53 µM (inactive) | 9.74 µM (active) |  |
| COc1ccc(C(=O)COC(=O)c2cccnc2SC)cc1 | 1.85 µM (active) | > 53 µM (inactive) | 3.77 µM (active) | EC50 [15]: > 260 µM (inactive) |
| O=C(CN1C(=O)/C(=C2\SC(=S)N(C3CCS(=O)(=O)C3)C2=O)c2ccccc21)Nc1ccccc1 (stereo not given) |  |  |  | IC50 [16]: 5.8 µM (active) |
